Target: T1, BRAF V600E (Homo sapiens, UniProt P15056, V600E)
T1 construct: endogenous C-terminal HiBiT fusion tag on BRAF V600E allele; endogenous in cells; host or cells: A375 clone 1F10 (CRISPR-Cas9 knock-in of the HiBiT tag; parental A375 from ATCC)
Assay: BRAF HiBiT degradation assay, C-terminal HiBiT-tagged BRAF V600E A375 cells (clone 1F10), Nano-Glo HiBiT Lytic assay
Assay type: cell-based
Conditions: A375 (BRAF V600E); for DC50: DC50 at 50%: fitted conc. at Y=50; for Dmax: A-375, percentage protein degraded at maximal compound effect relative to DMSO
From the text: An A375 cell line expressing a homozygous V600E mutation was purchased from ATCC (Manassas, VA, USA). An A375 clone 1F10 cell line with an endogenous C-terminal HiBiT fusion tag on BRAF V600E allele was generated internally using CRISPR-Cas9 technology and cultured in DMEM, high glucose supplemented with 10% FBS and 1× GlutaMAX. A HCT-116 BRAF−/− cell line overexpressing the C-terminal HiBiT-tagged G466V, G469A, and D594G mutants were generated by lentiviral transduction, externally at Biosettia Inc (San Diego, CA, USA). The stably transfected cells were cultured in RPMI media supplemented with 10% FBS, 1× GlutaMAX, and 0.25 μg/ml puromycin. DMEM medium, RPMI 1640 medium, GlutaMAX, fetal bovine serum (FBS), and puromycin were purchased from Gibco (Grand Island, NY, USA). HCT-116 BRAF−/− cells were purchased from Horizon Discovery (Waterbeach, UK).
The C-terminal HiBiT tagged BRAF A375 cells (monoclonal cell line, cell clone 1F10) were seeded at a density of 10,000 cells/well in 30 μL media (DMEM, high glucose supplemented with 10% FBS and 1× GlutaMAX) in white opaque 384-well plates (Corning #3570) from column 1 to column 23. The wildtype A375 cells were seeded in column 24 at the same cell density in 30 μL media. Cells were incubated at 37° C. with 5% CO2 for 24 h.
Intermediate compound dilution series (5-point, ranging from 5 mM to 0.5 μM, 10-fold dilutions in DMSO) were prepared in a source plate (Beckman Coulter cat. no. 001-16128). Final compound dilution series (11-point, ranging from 1 μM to 0.01 nM, half-log dilutions in DMSO) were stamped into the assay plate (Corning #3570, column 1-11 and 12-22) using the Echo Acoustic Liquid Handler (Beckman Coulter). Each compound was plated in duplicate, and the total volume of compound DMSO solution was 60 nL/well (0.2% final DMSO concentration). DMSO was included in wells A23-L23 and A24-L24. The DMSO-treated HiBiT-tagged samples served as Negative Control (NC) and the DMSO-treated wildtype samples served as Background Control (BC) for the HiBiT assay.
HiBiT signal was measured by a Nano-Glo HiBiT Lytic assay (Promega cat. no. N3050). HiBiT lytic detection reagent (Nano-Glo HiBiT Lytic Buffer with 1:50 Nano-Glo HiBiT Lytic Substrate and 1:100 LgBiT Protein, 40 μL) was added using Bravo. The mixture was incubated at room temperature, in the dark, and with gentle shaking for 10 min. Luminesce units (LU) were read on an EnVision plate reader 2105 (Perkin Elmer).
Percent protein remaining and viability remaining per sample were calculated as follows: […]
% Protein remaining values were plotted as a function of compound concentration. XC50 (DC50) values were determined by fitting curves using the following equation:
For the HiBiT degradation assay, the key parameters reported include: • The dose of compound that produces 50% degradation (DC50 at 50%): • DC50 at 50%: the Fitted X value (Conc.) at Y=50 (response) • Observed Dmax (Obs. Dmax) is the percentage protein degraded at maximal compound effect relative to DMSO-treated control: […]

T1 sequence (P15056 whole entry V600E, the tested form may be a part): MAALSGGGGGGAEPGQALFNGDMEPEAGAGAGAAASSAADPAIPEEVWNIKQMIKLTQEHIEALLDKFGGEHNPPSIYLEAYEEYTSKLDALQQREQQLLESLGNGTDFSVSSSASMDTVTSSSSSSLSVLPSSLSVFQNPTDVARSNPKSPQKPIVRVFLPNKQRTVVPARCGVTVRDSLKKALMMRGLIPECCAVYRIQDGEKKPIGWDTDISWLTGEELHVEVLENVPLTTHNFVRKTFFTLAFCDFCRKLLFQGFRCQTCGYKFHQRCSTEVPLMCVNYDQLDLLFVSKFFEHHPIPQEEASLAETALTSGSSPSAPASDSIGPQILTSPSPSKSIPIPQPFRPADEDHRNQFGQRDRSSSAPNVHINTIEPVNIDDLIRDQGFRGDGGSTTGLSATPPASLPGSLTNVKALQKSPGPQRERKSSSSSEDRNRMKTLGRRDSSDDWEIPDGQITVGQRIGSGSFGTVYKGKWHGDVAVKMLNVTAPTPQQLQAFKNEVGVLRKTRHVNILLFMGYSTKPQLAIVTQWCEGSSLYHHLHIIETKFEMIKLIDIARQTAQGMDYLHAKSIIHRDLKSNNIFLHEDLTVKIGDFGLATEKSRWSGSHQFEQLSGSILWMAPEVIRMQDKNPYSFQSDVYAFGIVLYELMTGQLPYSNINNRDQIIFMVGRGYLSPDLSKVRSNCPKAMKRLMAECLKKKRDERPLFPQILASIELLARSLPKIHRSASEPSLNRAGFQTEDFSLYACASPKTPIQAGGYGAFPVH

Structure (SMILES)	DC50 [nM]	Dmax [%]
CCCS(=O)(=O)Nc1cccc(-c2nc(C)sc2-c2ccnc(Nc3ccc(N4CCN(CC5(F)CCN(c6ccc(C7CCC(=O)NC7=O)cc6)CC5)CC4)cc3)n2)c1F (racemic) [Compound 31, Rac-N-[3-(5-{2-[(4-{4-[(1-{4-[(3R)-2,6-dioxopiperidin-3-yl]phenyl}-4-fluoropiperidin-4-yl)methyl]piperazin-1-yl}phenyl)amino]pyrimidin-4-yl}-2-methyl-1,3-thiazol-4-yl)-2-fluorophenyl]propane-1-sulfonamide]	10 to 50	> 70
CCCS(=O)(=O)Nc1cccc(-c2nc(C)sc2-c2ccnc(Nc3ccc(N4CCN(CC5(C)CCN(c6ccc(C7CCC(=O)NC7=O)cn6)CC5)CC4)cc3)n2)c1F (racemic) [Compound 32, Rac-N-[3-(5-{2-[(4-{4-[(1-{5-[(3R)-2,6-dioxopiperidin-3-yl]pyridin-2-yl}-4-methylpiperidin-4-yl)methyl]piperazin-1-yl}phenyl)amino]pyrimidin-4-yl}-2-methyl-1,3-thiazol-4-yl)-2-fluorophenyl]propane-1-sulfonamide]	< 10	> 70
CCN(C)S(=O)(=O)Nc1cccc(-c2nc(C)sc2-c2ccnc(Nc3ccc(N4CCN(CC5(C)CCN(c6ccc(C7CCC(=O)NC7=O)cn6)CC5)CC4)cn3)n2)c1F (racemic) [Compound 34, Rac-(3S)-3-{6-[4-({4-[6-({4-[4-(3-{[ethyl(methyl)sulfamoyl]amino}-2-fluorophenyl)-2-methyl-1,3-thiazol-5-yl]pyrimidin-2-yl}amino)pyridin-3-yl]piperazin-1-yl}methyl)-4-methylpiperidin-1-yl]pyridin-3-yl}piperidine-2,6-dione]	10 to 50	> 70
CCCS(=O)(=O)Nc1cccc(-c2nc(C(C)(C)C)sc2-c2ccnc(Nc3ccc(C4CCN(C(=O)C5CCN(c6ccc(C7CCC(=O)NC7=O)cc6)CC5)CC4)cc3)n2)c1F (racemic) [Compound 37, Rac-N-(3-{2-tert-butyl-5-[2-({4-[1-(1-{4-[(3R)-2,6-dioxopiperidin-3-yl]phenyl}piperidine-4-carbonyl)piperidin-4-yl]phenyl}amino)pyrimidin-4-yl]-1,3-thiazol-4-yl}-2-fluorophenyl)propane-1-sulfonamide]	10 to 50	30 to 70
CCN(C)S(=O)(=O)Nc1cccc(-c2nc(C)sc2-c2ccnc(Nc3ccc(N4CCN(C(=O)CC5CCN(c6ccc(C7CCC(=O)NC7=O)cn6)CC5)CC4)cn3)n2)c1F (racemic) [Compound 39, Rac-(3R)-3-{6-[4-(2-{4-[6-({4-[4-(3-{[ethyl(methyl)sulfamoyl]amino}-2-fluorophenyl)-2-methyl-1,3-thiazol-5-yl]pyrimidin-2-yl}amino)pyridin-3-yl]piperazin-1-yl}-2-oxoethyl)piperidin-1-yl]pyridin-3-yl}piperidine-2,6-dione]	< 10	> 70
CCCS(=O)(=O)Nc1cccc(-c2nc(C(C)(C)C)sc2-c2ccnc(Nc3ccc(N4CCN(C(=O)[C@H]5CC[C@H](Oc6ccc(C7CCC(=O)NC7=O)cn6)CC5)CC4)c(F)c3)n2)c1F (mixture of isomers) [Compound 50, N-[3-(2-tert-butyl-5-{2-[(3-fluoro-4-{4-[(1r,4r)-4-({5-[(3RS)-2,6-dioxopiperidin-3-yl]pyridin-2-yl}oxy)cyclohexanecarbonyl]piperazin-1-yl}phenyl)amino]pyrimidin-4-yl}-1,3-thiazol-4-yl)-2-fluorophenyl]propane-1-sulfonamide]	10 to 50	> 70
CCN(C)S(=O)(=O)Nc1cccc(-c2nc(C(C)(C)C)sc2-c2ccnc(Nc3ccc(N4CCN(C(=O)C5CN(c6ccc(C7CCC(=O)NC7=O)cn6)C5)CC4)cn3)n2)c1F (racemic) [Compound 53, Rac-(3S)-3-[6-(3-{4-[6-({4-[2-tert-butyl-4-(3-{[ethyl(methyl)sulfamoyl]amino}-2-fluorophenyl)-1,3-thiazol-5-yl]pyrimidin-2-yl}amino)pyridin-3-yl]piperazine-1-carbonyl}azetidin-1-yl)pyridin-3-yl]piperidine-2,6-dione]	< 10	> 70
CCCS(=O)(=O)Nc1cccc(-c2nc(C)sc2-c2ccnc(Nc3ccc(C4CCN(CC5CCN(c6ccc(C7CCC(=O)NC7=O)cn6)CC5)CC4)cc3)n2)c1F (racemic) [Compound 54, Rac-N-[3-(5-{2-[(4-{1-[(1-{5-[(3R)-2,6-dioxopiperidin-3-yl]pyridin-2-yl}piperidin-4-yl)methyl]piperidin-4-yl}phenyl)amino]pyrimidin-4-yl}-2-methyl-1,3-thiazol-4-yl)-2-fluorophenyl]propane-1-sulfonamide]	< 10	> 70
CCCS(=O)(=O)Nc1cccc(-c2nc(C)sc2-c2ccnc(Nc3ccc(C4CCN(C(=O)C5CCN(c6ccc(C7CCC(=O)NC7=O)cn6)CC5)CC4)cc3)n2)c1F (racemic) [Compound 55, Rac-N-(3-{5-[2-({4-[1-(1-{5-[(3R)-2,6-dioxopiperidin-3-yl]pyridin-2-yl}piperidine-4-carbonyl)piperidin-4-yl]phenyl}amino)pyrimidin-4-yl]-2-methyl-1,3-thiazol-4-yl}-2-fluorophenyl)propane-1-sulfonamide]	10 to 50	> 70
CCCS(=O)(=O)Nc1cccc(-c2nc(C(C)(C)C)sc2-c2ccnc(Nc3cccc(OC4CCN(CC5CCN(c6ccc7c(=O)n(C8CCC(=O)NC8=O)ccc7c6)CC5)CC4)c3)n2)c1F (racemic) [Compound 71, Rac-N-{3-[2-tert-butyl-5-(2-{[3-({1-[(1-{2-[(3R)-2,6-dioxopiperidin-3-yl]-1-oxo-1,2-dihydroisoquinolin-6-yl}piperidin-4-yl)methyl]piperidin-4-yl}oxy)phenyl]amino}pyrimidin-4-yl)-1,3-thiazol-4-yl]-2-fluorophenyl}propane-1-sulfonamide]	10 to 50	30 to 70
CCCS(=O)(=O)Nc1cccc(-c2nc(C(C)(C)C)sc2-c2ccnc(Nc3cccc(C4CCN(CC5(C)CCN(c6ccc(C7CCC(=O)NC7=O)cn6)CC5)CC4)c3)n2)c1F (racemic) [Compound 73, Rac-N-[3-(2-tert-butyl-5-{2-[(3-{1-[(1-{5-[(3R)-2,6-dioxopiperidin-3-yl]pyridin-2-yl}-4-methylpiperidin-4-yl)methyl]piperidin-4-yl}phenyl)amino]pyrimidin-4-yl}-1,3-thiazol-4-yl)-2-fluorophenyl]propane-1-sulfonamide]	50 to 500	30 to 70
CCCS(=O)(=O)Nc1cccc(-c2nc(C(C)(C)C)sc2-c2ccnc(Nc3cnn(C4CCN(CC5CCN(c6ccc(C(=O)NC7CCC(=O)NC7=O)nc6)CC5)CC4)c3)n2)c1F (racemic) [Compound 79, Rac-5-{4-[(4-{4-[(4-{2-tert-butyl-4-[2-fluoro-3-(propane-1-sulfonamido)phenyl]-1,3-thiazol-5-yl}pyrimidin-2-yl)amino]-1H-pyrazol-1-yl}piperidin-1-yl)methyl]piperidin-1-yl}-N-[(3R)-2,6-dioxopiperidin-3-yl]pyridine-2-carboxamide]	< 10	30 to 70
CCCS(=O)(=O)Nc1cccc(-c2nc(C(C)(C)C)sc2-c2ccnc(Nc3cnn(CC4CCN(CC5CCN(c6ccc(C(=O)NC7CCC(=O)NC7=O)nc6)CC5)CC4)c3)n2)c1F (racemic) [Compound 82, Rac-5-(4-{[4-({4-[(4-{2-tert-butyl-4-[2-fluoro-3-(propane-1-sulfonamido)phenyl]-1,3-thiazol-5-yl}pyrimidin-2-yl)amino]-1H-pyrazol-1-yl}methyl)piperidin-1-yl]methyl}piperidin-1-yl)-N-[(3R)-2,6-dioxopiperidin-3-yl]pyridine-2-carboxamide]	10 to 50	30 to 70

Source: patent US20260317324A1, “BIFUNCTIONAL COMPOUNDS FOR DEGRADING BRAF VIA UBIQUITIN PROTEOSOME PATHWAY” (Nurix Therapeutics, Inc., priority 2023, published 2026)
